35 compounds from patent US20230124361A1, “SMALL MOLECULE STING ANTAGONISTS” (CURADEV PHARMA PVT. LTD., priority 2020, published 2023) can be followed below.

A value given as a limit tells only on which side of the number the result lay.

The target in the experiment is T1, STING (Homo sapiens, UniProt Q86WV6, G230A/H232R/R293Q/R71H).
T1 construct: host or cells: THP1-Dual cells (human THP-1 monocyte line with Lucia/SEAP reporters)
T1 sequence (Q86WV6 whole entry R71H/G230A/H232R/R293Q): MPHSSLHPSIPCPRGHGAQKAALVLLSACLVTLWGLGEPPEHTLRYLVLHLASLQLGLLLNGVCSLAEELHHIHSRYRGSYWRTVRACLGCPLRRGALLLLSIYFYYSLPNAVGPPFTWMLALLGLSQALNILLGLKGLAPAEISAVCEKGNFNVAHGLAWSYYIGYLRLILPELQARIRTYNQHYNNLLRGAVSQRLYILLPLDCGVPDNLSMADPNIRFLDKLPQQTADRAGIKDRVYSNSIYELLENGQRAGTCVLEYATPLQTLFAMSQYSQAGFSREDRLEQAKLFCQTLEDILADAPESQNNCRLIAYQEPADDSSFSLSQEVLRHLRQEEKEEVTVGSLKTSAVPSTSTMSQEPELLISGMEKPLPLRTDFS
Kind of experiment: Reporter gene expression assay in THP1-Dual cells (IRF pathway Lucia luciferase, 2',3'-cGAMP stimulation). The conditions noted are these: 10 min preincubation, 5 μM 2',3'-cGAMP, 20 hr, IRF reporter QUANTI-Luc, read-out: THP-1 (HAQ) Activity. It is filed as cell-based. The method, boiled down: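 THP1-Dual cells preincubated 10 min with compound, then stimulated with 5 μM 2′,3′-cGAMP for 20 hr. Secreted Lucia luciferase (IRF reporter) measured in supernatant by luminescence; IC50 reported as ranges (A ≤1 μM, B >1–≤10 μM, C >10 μM).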
(In a reporter assay the amount or activity of a reporter protein is the signal.)
As for `O=C(Nc1ccc2c(c1)SCCN2c1ccccc1)Nc1ccc2cc[nH]c2c1` [Example 182, 1-(1H-indol-6-yl)-3-(4-phenyl-3,4-dihydro-2H-benzo[b][1,4]thiazin-7-yl)urea], the IC50 is ≤ 1 µM.
The figure for `O=C(Nc1ccc2c(c1)OCC(=O)N2Cc1ccccc1)NC1CCC(c2ccccc2)CC1` (mixture of isomers) [Example 137, 1-(4-benzyl-3-oxo-3,4-dihydro-2H-benzo[b][1, 4]oxazin-7-yl)-3-(4-phenyl-cyclohexyl)urea] is 1 to 10 µM; for `O=C(Cc1ccc2cc[nH]c2c1)Nc1ccc2c(c1)N(Cc1ccccc1)C(=O)CS2` [Example 47, N-(4-Benzyl-3-oxo-3,4-dihydro-2H-benzo[b][1,4]thiazin-6-yl)-2-(1H-indol-6-yl)acetamide] it is 1 to 10 µM; for `O=C(Nc1ccc2c(c1)OCC(=O)N2Cc1ccc(F)c(Cl)c1)Nc1ccc2cc[nH]c2c1` [Example 111, 1-(4-(3-chloro-4-fluorobenzyl)-3-oxo-3,4-dihydro-2H-benzo[b][1,4]oxazin-7-yl)-3-(1H-indol-6-yl)urea] it is 1 to 10 µM.
With `O=C(Nc1ccc2c(c1)SCCN2Cc1c(F)cccc1Cl)Nc1ccc2cc[nH]c2c1` [Example 171, 1-(4-(2-chloro-6-fluorobenzyl)-3,4-dihydro-2H-benzo[b][1, 4]thiazin-7-yl)-3-(1H-indol-6-yl)urea] the figure was ≤ 1 µM; with `O=C(Nc1ccc2cc[nH]c2c1)Nc1cc2c(cc1Br)OCCN2Cc1ccccc1` [Example 180, 1-(4-benzyl-7-bromo-3,4-dihydro-2H-benzo[b][1, 4]oxazin-6-yl)-3-(1H-indol-6-yl)urea], 1 to 10 µM.
The figure for `O=C(Nc1ccc2c(c1)OCC(=O)N2Cc1ccc(O)cc1)Nc1ccc2cc[nH]c2c1` [Example 139, 1-(4-(4-hydroxybenzyl)-3-oxo-3,4-dihydro-2H-benzo[b][1, 4]oxazin-7-yl)-3-(1H-indol-6-yl)urea] is 1 to 10 µM; for `O=C(Nc1ccc2c(c1)SCC(=O)N2Cc1c(F)ccc(O)c1Cl)Nc1ccc2cc[nH]c2c1` [Example 125, l-(4-(2-chloro-6-fluoro-3-hydroxybenzyl)-3-oxo-3,4-dihydro-2H-benzo[b][1, 4]thiazin-7-yl)-3-(1H-indol-6-yl)urea] it is ≤ 1 µM.
For the compound `O=C(Nc1ccc2c(c1)OCC(=O)N2Cc1ccccc1O)Nc1ccc2cc[nH]c2c1` [Example 159, 1-(4-(2-hydroxybenzyl)-3-oxo-3,4-dihydro-2H-benzo [b][1, 4]oxazin-7-yl)-3-(1H-indol-6-yl)urea], the IC50 is 1 to 10 µM.
Take `O=C(Nc1ccc2c(c1)OCC(=O)N2Cc1ccc2nsnc2c1)Nc1ccc2cc[nH]c2c1` [Example 119, 1-(4-(benzo[c][1,2,5]thiadiazol-5-ylmethyl)-3-oxo-3,4-dihydro-2H-benzo[b][1,4]oxazin-7-yl)-3-(1H-indol-6-yl)urea]: the IC50 was 1 to 10 µM.
Consider `O=C(Nc1ccc2c(c1)OCCN2Cc1c(F)cccc1Cl)Nc1ccc2cc[nH]c2c1` [Example 170, 1-(4-(2-chloro-6-fluorobenzyl)-3,4-dihydro-2H-benzo[b][1, 4]oxazin-7-yl)-3-(1H-indol-6-yl)urea], for which the IC50 fell in the range of 1 to 10 µM.
With `O=C(Nc1ccc2c(c1)OCC(=O)N2Cc1c(F)cccc1F)Nc1ccc2cc[nH]c2c1` [Example 96, 1-(4-(2,6-difluorobenzyl)-3-oxo-3,4-dihydro-2H-benzo [b][1, 4]oxazin-7-yl)-3-(1H-indol-6-yl)urea] the figure was > 10 µM; with `O=C(Nc1ccc2c(c1)OCC(=O)N2Cc1ccccc1C(=O)O)Nc1ccc2cc[nH]c2c1` [Example 143, 2-((7-(3-(1H-indol-6-yl)ureido)-3-oxo-2,3-dihydro-4H-benzo[b][1,4]oxazin-4-yl)methyl)benzoic acid], > 10 µM.
With `O=C(Nc1ccc2c(c1)OCC(=O)N2Cc1cc(F)cc(Cl)c1)Nc1ccc2cc[nH]c2c1` [Example 102, 1-(4-(3-chloro-5-fluorobenzyl)-3-oxo-3,4-dihydro-2H-benzo[b][1,4]oxazin-7-yl)-3-(1H-indol-6-yl)urea], the IC50 was ≤ 1 µM.
With `O=C(Cc1ccco1)Nc1ccc2c(c1)N(Cc1ccccc1)C(=O)CS2` [Example 48, N-(4-benzyl-3-oxo-3,4-dihydro-2H-benzo[b][1,4]thiazin-6-yl)-2-(furan-2-yl)acetamide] the figure was > 10 µM; with `O=C(Nc1ccc2c(c1)N(Cc1ccccc1)CCS2)Nc1ccc2cc[nH]c2c1` [Example 50, 1-(4-Benzyl-3,4-dihydro-2H-benzo[b][1,4]thiazin-6-yl)-3-(1H-indol-6-yl)urea], ≤ 1 µM.
On to `O=C(Nc1ccc2c(c1)OCC(=O)N2Cc1ccc(OC(F)F)cc1)Nc1ccc2cc[nH]c2c1` [Example 109, 1-(4-(4-(difluoromethoxy)benzyl)-3-oxo-3,4-dihydro-2H-benzo[b][1,4]oxazin-7-yl)-3-(1H-indol-6-yl)urea], for which the IC50 is ≤ 1 µM.
As to `COC(=O)c1ccccc1CN1C(=O)COc2cc(NC(=O)Nc3ccc4cc[nH]c4c3)ccc21` [Example 140, methyl 2-((7-(3-(1H-indol-6-yl)ureido)-3-oxo-2,3-dihydro-4H-benzo[b][1, 4]oxazin-4-yl)methyl) benzoate], the IC50 was in the range of 1 to 10 µM.
With `O=C(Nc1ccc2c(c1)OCC(=O)N2Cc1ccccc1)NC1Cc2ccccc2C1` [Example 136, 1-(4-benzyl-3-oxo-3,4-dihydro-2H-benzo[b][1, 4]oxazin-7-yl)-3-(2,3-dihydro-1H-inden-2-yl)urea] the figure was 1 to 10 µM; with `Cn1ccc2ccc(NC(=O)Nc3ccc4c(c3)N(Cc3ccccc3)C(=O)CS4)cc21` [Example 27, 1-(4-benzyl-3-oxo-3,4-dihydro-2H-benzo[b] [1,4]thiazin-6-yl)-3-(1-methyl-1H-indol-6-yl)urea], > 10 µM; with `NC(=O)c1cc2c(cc1NC(=O)Nc1ccc3cc[nH]c3c1)N(Cc1ccccc1)CCO2` [Example 179, 6-(3-(1H-indol-6-yl)ureido)-4-benzyl-3,4-dihydro-2H-benzo[b][1, 4]oxazine-7-carboxamide], 1 to 10 µM.
The figure for `O=C(Nc1ccc(F)cc1)Nc1ccc2c(c1)N(Cc1ccncc1)C(=O)CS2` [Example 17, l-(4-fluorophenyl)-3-(3-oxo-4-(pyridin-4-ylmethyl)-3,4-dihydro-2H-benzo[b][1, 4]thiazin-6-yl)urea] is > 10 µM.
For `O=C(Nc1ccc2c(c1)OCC(=O)N2Cc1nnco1)Nc1ccc2cc[nH]c2c1` [Example 151, 1-(4-((1,3,4′-oxadiazol-2-yl)methyl)-3-oxo-3,4-dihydro-2H-benzo[b][1, 4]oxazin-7-yl)-3-(1H-indol-6-yl)urea], the IC50 is > 10 µM.
`CN(C(=O)Nc1ccc2cc[nH]c2c1)c1ccc2c(c1)N(Cc1ccccc1)CCO2` [Example 178, 1-(4-benzyl-3,4-dihydro-2H-benzo[b][1, 4]oxazin-6-yl)-3-(1H-indol-6-yl)-1-methylurea]: the IC50 lay within 1 to 10 µM.
As to `CN1CCN(Cc2ccccc2)c2cc(NC(=O)Nc3ccc4cc[nH]c4c3)ccc21` [Example 73, 1-(4-Benzyl-1-methyl-1,2,3,4-tetrahydroquinoxalin-6-yl)-3-(1H-indol-6-yl)urea], the IC50 was 1 to 10 µM.
The figure for `O=C(Nc1ccc2c(c1)OCC(=O)N2Cc1ccccc1)Nc1ccn(-c2ccccc2)n1` [Example 138, 1-(4-benzyl-3-oxo-3,4-dihydro-2H-benzo[b][1, 4]oxazin-7-yl)-3-(1-phenyl-1H-pyrazol-3-yl)urea] is > 10 µM; for `O=C(Nc1ccc2c(c1)N(Cc1ccccc1)C(CC(O)CO)CO2)Nc1ccc2cc[nH]c2c1` (centres unmarked) [Example 79, 1-(4-Benzyl-3-(2,3-dihydroxypropyl)-3,4-dihydro-2H-benzo[b][1,4]oxazin-6-yl)-3-(1H-indol-6-yl)urea] it is 1 to 10 µM.
On to `N#Cc1ccc(CN2C(=O)COc3cc(NC(=O)Nc4ccc5cc[nH]c5c4)ccc32)cc1` [Example 123, 1-(4-(4-cyanobenzyl)-3-oxo-3,4-dihydro-2H-benzo[b][1,4]oxazin-7-yl)-3-(1H-indol-6-yl)urea], for which the IC50 was 1 to 10 µM.
As for `CN(C(=O)Nc1ccc2c(c1)N(Cc1ccccc1)C(=O)CS2)c1ccc2cc[nH]c2c1` [Example 59, 3-(4-benzyl-3-oxo-3,4-dihydro-2H-benzo[b][1, 4]thiazin-6-yl)-l-(1H-indol-6-yl)-1-methylurea], the IC50 was in the range of 1 to 10 µM.
Turning to `O=C1COc2cc(NC(=O)Nc3ccc4cc[nH]c4c3)ccc2N1` [Example 88, 1-(1H-indol-6-yl)-3-(3-oxo-3,4-dihydro-2H-benzo[b][1, 4]oxazin-7-yl)urea], the IC50 is > 10 µM.
As for `O=C(Nc1ccc2c(c1)OCC(=O)N2Cc1ccc(F)cc1Cl)Nc1ccc2cc[nH]c2c1` [Example 94, 1-(4-(2-chloro-4-fluorobenzy 1)-3-oxo-3,4-dihydro-2H-benzo[b][1,4]oxazin-7-yl)-3-(1H-indol-6-yl)urea], the IC50 is ≤ 1 µM.
For the compound `Nc1cccc(NC(=O)Nc2ccc3c(c2)N(Cc2ccccc2)C(=O)CS3)c1` [Example 25, 1-(3-aminophenyl)-3-(4-benzyl-3-oxo-3,4-dihydro-2H-benzo [b][1,4]thiazin-6-yl)urea], the IC50 lay in the range of 1 to 10 µM.
Consider `O=C(Nc1cccnc1)Nc1ccc2c(c1)N(Cc1ccccc1)C(=O)CS2` [Example 4, 1-(4-benzyl-3-oxo-3,4-dihydro-2H-benzo[b][1, 4]thiazin-6-yl)-3-(pyridin-3-yl)urea], for which the IC50 fell in the range of 1 to 10 µM.
With `O=C(Nc1ccc2c(c1)OCC(=O)N2Cc1cc(F)cc(C(F)(F)F)c1)Nc1ccc2cc[nH]c2c1` [Example 112, 1-(4-(3-fluoro-5-(trifluoromethyl)benzyl)-3-oxo-3,4-dihydro-2H-benzo[b][1,4]oxazin-7-yl)-3-(1H-indol-6-yl)urea], the IC50 is ≤ 1 µM.
The figure for `O=C(Nc1ccc2c(c1)OCC(=O)N2Cc1ccn[nH]1)Nc1ccc2cc[nH]c2c1` [Example 161, 1-(4-((1H-pyrazol-5-yl)methyl)-3-oxo-3,4-dihydro-2H-benzo[b][1, 4]oxazin-7-yl)-3-(1H-indol-6-yl)urea] is > 10 µM.
